# Entries after “also recorded” stand apart in the source; their conditions may differ.
# Assays:
# [1] = system: human primary hepatocytes; assay: NAD+ content in human primary hepatocytes (LCMS/MS); format: cell-based; conditions: 0.5 μM and 5 μM, FIG. 1
# Method: Primary hepatocytes are treated with different concentrations of a compound of Formula (I), Formula (Ia), Formula (Ib), Formula (II), or Formula (III), or a pharmaceutically acceptable salt thereof, or MEHP (control) after seeding. The compound is replaced every 24 hours, and then cells are directly harvested and lysed to detect NAD^+ content through LC MS/MS (liquid chromatography mass spectrometry/mass spectroscopy).
# The NAD^+ concentration or content was determined in human primary hepatocytes treated with Compound 4. Vehicle (NT) was used as a control.
# At least three experiments were run treating primary hepatocytes with different concentrations of Compound 4 (0.5 μM and 5 μM) after 48 hrs from seeding. Compound 4 was replaced every 24 hrs, and then cells were directly harvested and lysed with ACN/H2O (ratio 5:1). LCMS/MS was used to detect and measure NAD^+ concentration/content. […] (FIG. 1)
# The NAD^+ concentration or content was determined in human primary hepatocytes treated with Compound 1 and MEHP, a known ACMSD inhibitor. MEHP was used as a control.
# At least three experiments were run treating primary hepatocytes with different concentrations of Compound 1 (0.5 μM, 5 μM, and 50 μM) after 48 hrs from seeding. Compound 1 was replaced every 24 hrs, and then cells were directly harvested and lysed with ACN/H2O (ratio 5:1). […]
# hERG potassium channel = hERG potassium channel (Homo sapiens (Human), UniProt Q12809); assay: Predictor hERG assay, fluorescence polarization tracer displacement; conditions: hERG channel affinity binding; DMSO 1%
# Source text: The Predictor hERG assay kit is stably transfected with hERG potassium channel and a high-affinity red fluorescent hERG channel ligand and is used for the determination of hERG channel affinity binding of compounds of Formula (I), Formula (Ia), Formula (Ib), Formula (II), or Formula (III), or a pharmaceutically acceptable salt thereof. Compounds that bind to the hERG channel protein (competitors) are identified by their ability to displace the tracer which results in a lower fluorescence polarization.
# The Predictor hERG assay kit (Invitrogen), containing membrane preparations from Chinese hamster ovary cells stably transfected with hERG potassium channel and a high-affinity red fluorescent hERG channel ligand (tracer), was used for the determination of hERG channel affinity binding of the test compounds in Table 2. Compounds that bind to the hERG channel protein (competitors) were identified by their ability to displace the tracer, resulting in a lower fluorescence polarization. The final concentration of DMSO in each well was maintained at 1%. The assays were performed according to the manufacturer's protocol (Invitrogen).
# HePG2 cells = assay: Cytotoxicity (LDH release, ATP level) in HePG2 cells; format: cell-based; conditions: 10 nM to 300 μM; 4 hrs; DMSO 1%
# Method: (§1) HePG2 and AML-12 cells are seeded and a dose-response of the compound is performed at various concentrations. Cells are stimulated and the supernatant is used to perform LDH release as a measure of necrosis while the cells are lysed to detect ATP levels for determining cell viability.
# (§2) Cytotoxicity: 20000 HePG2 and AML-12 cells were seeded in 96 well plate (Viewplate PerkinElmer). Dose-response of the compound in Table 2 was performed using HP D300 digital dispenser, ranging from 10 nM to 300 μM with constant DMSO 1% in medium. Cells were stimulated for 4 hrs at 37° C.; the supernatant was used to perform LDH release (Cytotox-one, Promega) as a measure of necrosis while the cells were lysed to detect ATP level for determining cell viability (Celltiter-glo, Promega) according to manufacturer's instructions.
# AML-12 cells = assay: Cytotoxicity (LDH release, ATP level) in AML-12 cells; format: cell-based, mouse; conditions: 10 nM to 300 μM; 4 hrs; DMSO 1%
# Method: as §1, §2
# SOD2 [2] = assay: Modulation of SOD2 activity in murine primary hepatocytes; format: cell-based, mouse
# Method: Primary hepatocytes or AML-12 cells are lysed and total protein concentration is determined using the Bradford assay. SOD2 activity is determined at indicated times after treatment with a compound of Formula (I), Formula (Ia), Formula (Ib), Formula (II), or Formula (III), or a pharmaceutically acceptable salt thereof, using a SOD Assay Kit. Absorbance is determined and results are expressed in U/ml/mg of protein according to the standard curve and measured protein concentration.
# Primary hepatocytes were prepared from 8-12-week-old C57BL/6J mice by collagenase perfusion method. Mouse livers were perfused with Hank's balanced salt solution (HBSS, KCl, 5.4 mM; KH2PO4, 0.45 mM; NaCl, 138 mM; NaHCO3, 4.2 mM; Na2HPO4, 0.34 mM; glucose, 5.5 mM; […]; EGTA, 50 mM; CaCl2, 50 mM; pH 7.4). Livers were then washed at a rate of 5 ml/min through the portal vein. After washing, livers were perfused with collagenase (0.025%) solution. Cell viability was assessed by the trypan blue method. Isolated primary hepatocytes were plated with DMEM medium (Gibco) including 10% FCS, 10 units per ml penicillin and HEPES for buffering. The cells were maintained in culture at 37° C. in a humidified atmosphere of 5% CO2/95% air. After 6-8 hrs of attachment, this medium was replaced with media containing different concentrations of an ACMSD inhibitor (i.e., Compound 1 or Compound 17) or with the corresponding concentration of DMSO (as a control). Primary hepatocytes were harvested about 24 hrs later if not indicated differently.
# (§3) Primary hepatocytes or AML-12 cells were then lysed in a 20 mM HEPES buffer (Gibco), pH 7.2, containing 1 mM EGTA (Sigma), 210 mM mannitol (Sigma), and 70 mM sucrose (AMRESCO). Total protein concentration was determined using the Bradford assay (BioRad). SOD-2 activity was determined at indicated times after ACMSD inhibitor treatment by the SOD Assay Kit (Cayman Chemical) according to the manufacturer's instructions. In order to specifically detect the SOD2 activity 2 mM potassium cyanide was added to the assay, which inhibited both Cu/Zn-SOD and extracellular SOD, resulting in the detection of only Mn-SOD (SOD-2) activity. Absorbance was determined with a Victor X4 multi-label plate reader (Perkin-Elmer) at 450 nm. Results are expressed in U/ml/mg of protein according to the standard curve and measured protein concentration.
# [3] = system: murine primary hepatocytes; assay: NAD+ content in murine primary hepatocytes (HPLC, mass-spectrometry); format: cell-based, mouse; conditions: 24 hours
# FoxO1 = FoxO1 phosphorylation levels in AML-12 cells (western blot); format: cell-based, mouse; conditions: 24 hours, FIG. 6
# Method: AML-12 cells are treated with different concentrations of a compound of Formula (I), Formula (Ia), Formula (Ib), Formula (II), or Formula (III), or a pharmaceutically acceptable salt thereof. Cells are then lysed, and analyzed by SDS-PAGE/western blot. Blocking and antibody incubations are then done and each protein present is detected with its specific antibody.
# AML-12 cells were treated with different concentrations of Compound 1 or Compound 17 for 24 hours. Cells were then lysed in lysis buffer (50 mM Tris, 150 mM KCl, EDTA 1 mM, NP40 1%) containing protease and phosphatase inhibitors, and analyzed by SDS-PAGE/western blot. Blocking and antibody incubations were done in 5% milk. Each protein present was detected with its specific antibody. Tubulin antibody was obtained from Sigma Inc, FoxO1 and phopho-FoxO1 (Ser256) antibodies were obtained from Cell Signaling. Antibody detection reactions were developed by enhanced chemiluminescence (Advansta, Calif., USA) using x-ray films.
# [4] = system: SIRT1-regulated genes (Pgc1a, Sod1, Sod2); assay: RT-qPCR analysis of SIRT1-regulated genes in primary murine hepatocytes; format: cell-based; conditions: primary mouse hepatocytes; 24 hrs; 5 nM-500 nM range
# Method: Cells (AML-12, Hepa-1.6, HEK-293, primary human and murine hepatocytes) are treated with different concentrations of a compound of Formula (I), Formula (Ia), Formula (Ib), Formula (II), or Formula (III), or a pharmaceutically acceptable salt thereof and the gene expression of ACMSD, Pgc1a, Sod1, and Sod2 (MnSOD) is determined using RT-qPCR. Total RNA is extracted from cells and the extracted RNA is treated with DNase and used for reverse transcription (RT).
# Gene expression of ACMSD and genes known to be regulated by SIRT1, (an enzyme that is strictly NAD^+ dependent) such as Pgc1a, Sod1, Sod2 (MnSOD), were analysed in AML-12 cells, Hepa-1.6 cells and primary murine hepatocytes treated with Compound 1 or 17.
# Cells (AML-12, Hepa-1.6, HEK-293, primary human and murine hepatocytes) were treated with different concentrations of Compound 1 or Compound 17. Total RNA was extracted from cells using TRIzol (Invitrogen) according to the manufacturer's instructions. The RNA was treated with DNase, and 2 μg of RNA was used for reverse transcription (RT). 50× diluted cDNA was used for RT-quantitative PCR (RT-qPCR) reactions. The RT-qPCR reactions were performed using the Light-Cycler system (Roche Applied Science) and a qPCR Supermix (QIAGEN) with the indicated primers. The average of at least three technical repeats was used for each biological data point.
# SOD2 [5] = assay: Modulation of SOD2 activity in AML-12 cells; format: cell-based, mouse; conditions: 24 hours
# Method: Primary hepatocytes or AML-12 cells are lysed and total protein concentration is determined using the Bradford assay. SOD2 activity is determined at indicated times after treatment with a compound of Formula (I), Formula (Ia), Formula (Ib), Formula (II), or Formula (III), or a pharmaceutically acceptable salt thereof, using a SOD Assay Kit. Absorbance is determined and results are expressed in U/ml/mg of protein according to the standard curve and measured protein concentration. […]
# as §3, with “In order to specifically detect the SOD2 activity 2 mM potassium cyanide was added to the assay, which inhibited both Cu/Zn-SOD and extracellular SOD, resulting in the detection of only Mn-SOD (SOD-2) activity.” left out
# Caspase 3/7 = assay: Modulation of caspase 3/7 activity in MDCK cells injured with cisplatin; format: cell-based
# Method: MDCK cells are cultured in base medium to a final concentration of 10%. Cells are plated into 96 wells and 24 hours after cell plating the medium is changed with fresh medium supplemented with 1% FBS. Cisplatin is then used to induce cell injury. Different concentrations of Formula (I), Formula (Ia), Formula (Ib), Formula (II), or Formula (III), or a pharmaceutically acceptable salt thereof (in DMSO) are added in combination with cisplatin or prior to adding cisplatin. Caspase 3/7 activity (Promega) is determined according to standard procedures using a luminescent signal readout on a plate reader. Each experiment/condition is performed in triplicate. Caspase activity is analyzed as percentage effect normalized to the cisplatin alone and vehicle treated cells.
# MDCK cells (MDCK (NBL-2) ATCC® CCL-34™) were cultured in base medium ATCC-formulated Eagle's Minimum Essential Medium, Catalog No. 30-2003 with fetal bovine serum (FBS) to a final concentration of 10%. […]
# Caspase 3/7 activity (Promega) was determined according to standard procedures using a luminescent signal readout on a Victor V plate reader (PerkinElmer). […]
# Caspase activity was analyzed as percentage effect normalized to the cisplatin alone (100%) and vehicle treated cells as 0% of caspase activity. Data were analyzed by GraphPad Software. […]
# Chain of hERG potassium channel (Q12809 whole entry): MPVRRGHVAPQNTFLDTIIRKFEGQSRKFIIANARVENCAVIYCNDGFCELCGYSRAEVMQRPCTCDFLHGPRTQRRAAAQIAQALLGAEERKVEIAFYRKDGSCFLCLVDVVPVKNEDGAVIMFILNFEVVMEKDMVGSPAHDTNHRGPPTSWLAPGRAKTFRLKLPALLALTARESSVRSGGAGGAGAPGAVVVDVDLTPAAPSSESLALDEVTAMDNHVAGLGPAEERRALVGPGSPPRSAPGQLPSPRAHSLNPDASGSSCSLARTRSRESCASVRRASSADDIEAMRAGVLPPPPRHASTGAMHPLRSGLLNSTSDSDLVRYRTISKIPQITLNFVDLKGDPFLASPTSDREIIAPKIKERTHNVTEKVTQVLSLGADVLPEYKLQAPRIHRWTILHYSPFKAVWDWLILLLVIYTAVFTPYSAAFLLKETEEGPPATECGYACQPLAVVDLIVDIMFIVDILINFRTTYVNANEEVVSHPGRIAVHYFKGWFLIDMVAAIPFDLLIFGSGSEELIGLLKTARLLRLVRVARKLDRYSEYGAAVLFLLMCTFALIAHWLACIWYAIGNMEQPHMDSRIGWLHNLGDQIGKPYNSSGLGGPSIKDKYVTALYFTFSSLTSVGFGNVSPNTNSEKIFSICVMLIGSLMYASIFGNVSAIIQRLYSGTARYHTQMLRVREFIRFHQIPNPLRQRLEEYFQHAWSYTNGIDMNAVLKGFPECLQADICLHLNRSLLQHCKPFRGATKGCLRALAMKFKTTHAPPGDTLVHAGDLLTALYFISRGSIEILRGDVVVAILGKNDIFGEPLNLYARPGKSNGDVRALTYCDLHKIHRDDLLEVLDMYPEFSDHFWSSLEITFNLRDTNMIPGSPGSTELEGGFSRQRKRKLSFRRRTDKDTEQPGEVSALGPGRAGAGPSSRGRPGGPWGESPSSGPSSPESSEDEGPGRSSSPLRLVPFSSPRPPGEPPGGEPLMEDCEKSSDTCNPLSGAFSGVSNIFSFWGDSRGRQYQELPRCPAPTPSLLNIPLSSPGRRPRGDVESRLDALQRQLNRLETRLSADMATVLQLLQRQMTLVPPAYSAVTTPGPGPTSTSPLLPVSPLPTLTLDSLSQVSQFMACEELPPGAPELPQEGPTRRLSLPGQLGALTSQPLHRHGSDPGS
SMILES,hERG (hERG potassium channel),Cytotoxicity Hep-G2 (HePG2 cells),Cytotoxicity AML-12 (AML-12 cells),other results
N#Cc1c(-c2cccs2)nc(SCc2cccc(C(=O)O)c2)[nH]c1=O [Compound 4],No Activity,Not Toxic,Not Toxic,ACMSD-1 inhibition (NAD+ concentration/content) [1]: inhibits ACMSD-1 enzyme at concentrations as low as 0.5 μM and 5 μM
N#Cc1c(-c2nccs2)nc(SCc2cccc(C(=O)O)c2)[nH]c1=O [Compound 5],No Activity,Not Toxic,Not Toxic,
N#Cc1c(-c2ccc(Cl)cc2)nc(SCc2ccc(C(=O)O)cc2)[nH]c1=O [Compound 8],No Activity,Not Toxic,Not Toxic,
O=C(O)c1cccc(CSc2nc(-c3ccccc3)c(Br)c(=O)[nH]2)c1 [Compound 11],No Activity,Not Toxic,Not Toxic,
N#Cc1c(-c2cccs2)nc(SCc2cccc(-c3nn[nH]n3)c2)[nH]c1=O [Compound 17],No Activity,Not Toxic,Not Toxic,"dose at which effects on SOD2 activity were observed (SOD2 [2]; primary hepatocytes): about 5 nM; dose at which the effect on SOD2 activity reached a maximum (SOD2 [2]; primary hepatocytes): about 50 nM; SOD2 activity (SOD2 [2]; primary murine hepatocytes, 24 hours): induced in a dose-dependent manner; intra-cellular NAD+ levels ([3]; 5 nM, 10 nM and 50 nM, FIG. 2): increase in NAD^+ levels; also recorded: significant and dose-dependent increase; concentration with significant effect on NAD+ levels [3]: ≤ 5 nM; FoxO1 phosphorylation at Ser256 (FoxO1): decrease in FoxO1 phosphorylation at Ser256 with increasing dose; Pgc1a mRNA expression levels [4]: dose-dependent increase; Sod2 (MnSOD) mRNA expression levels [4]: dose-dependent increase; SOD2 activity (SOD2 [5]): induced in a dose-dependent manner"
N#Cc1c(-c2cccs2)nc(SCc2cccc(CC(=O)O)c2)[nH]c1=O [Compound 18],,,,"activity of caspase 3/7 induced by cisplatin (Caspase 3/7; cisplatin 50 μM for 16 hrs): decreases, in significant manner; concentration with significant decrease of caspase activity vs cisplatin alone (p<0.001) (Caspase 3/7; in combination with cisplatin): 100 µM"
N#Cc1c(-c2cccs2)nc(SCc2cccc(-c3noc(=O)[nH]3)c2)[nH]c1=O [Compound 19],No Activity,Not Toxic,Not Toxic,
